From ChEMBL document CHEMBL5518227, “Discovery of JNJ-1802, a First-in-Class Pan-Serotype Dengue Virus NS4B Inhibitor” (J Med Chem, 2024)

Tests used:
dengue virus type 3 = test: Antiviral activity against DENV-3 H87 infected in african green monkey Vero cells incubated for 24 hrs measured after 3 days post infection by RT-PCR analysis; type: functional, organism-based; settings: Dengue virus, H87, Vero; read-out: EC50
[1] = Volume of distribution at steady state in Sprague-Dawley rat at 2.5 mg/kg, iv measured after 24 hrs by LC-MS/MS analysis; type: ADME, organism-based; settings: in vivo, read-out: Vdss
[2] = Clearance in overnight fasted Beagle dog assessed as liver blood flow at 0.51 mg/kg, iv measured upto 24 hrs by LC-MS/MS analysis; type: ADME, organism-based, Canis lupus familiaris; settings: in vivo
[3] = Chromatographic hydrophobicity index, log D of the compound at pH 7.4 by LC/MS analysis; type: physicochemical; settings: buffer
[4] = Mutagenicity in Salmonella typhimurium TA7005 in presence or absence of S9 fraction pretreated for 90 mins measured after 48 hrs in dark by AMES test; type: toxicity; settings: salmonella enterica subsp. enterica serovar typhimurium, s9, 49.5 h; time 2970 min
[5] = Volume of distribution at steady state in CD-1 mouse at 2.5 mg/kg, iv measured upto 24 hrs by LC-MS/MS analysis; type: ADME, organism-based; settings: in vivo, read-out: Vdss
dengue virus type 2 = test: Antiviral activity against DENV-2 16681 expressing eGFP infected in african green monkey Vero cells incubated with cells for 24 hrs followed by viral infection measured after 3 days by laser microscopic analysis; type: functional, organism-based; settings: Dengue virus, 16681, Vero
[6] = Oral bioavailability in overnight fasted Beagle dog at 2.37 mg/kg measured upto 24 hrs by LC-MS/MS analysis; type: ADME, organism-based, Canis lupus familiaris; settings: in vivo
[7] = Clearance in 8 hrs fasted cynomolgus monkey assessed as liver blood flow at 1 mg/kg, iv measured upto 24 hrs by LC-MS/MS analysis; type: ADME, organism-based, Macaca fascicularis; settings: in vivo
[8] = Mutagenicity in Salmonella typhimurium TA7002 in presence or absence of S9 fraction pretreated for 90 mins measured after 48 hrs in dark by AMES test; type: toxicity; settings: salmonella enterica subsp. enterica serovar typhimurium, s9, 49.5 h; time 2970 min
[9] = Cmax in 8 hrs fasted cynomolgus monkey assessed as liver blood flow at 3 mg/kg, po measured upto 24 hrs by LC-MS/MS analysis; type: ADME, organism-based, Macaca fascicularis; settings: in vivo
[10] = Oral bioavailability in Sprague-Dawley rat at 10 mg/kg measured after 24 to 48 hrs by LC-MS/MS analysis; type: ADME, organism-based; settings: in vivo, time 24-48 hrs
[11] = Cmax in CD-1 mouse at 10 mg/kg, po measured upto 24 hrs by LC-MS/MS analysis; type: ADME, organism-based; settings: in vivo
[12] = Volume of distribution at steady state in overnight fasted Beagle dog at 0.51 mg/kg, iv measured upto 24 hrs by LC-MS/MS analysis; type: ADME, organism-based, Canis lupus familiaris; settings: in vivo, read-out: Vdss
[13] = AUC in Sprague-Dawley rat at 10 mg/kg, po measured after 24 to 48 hrs by LC-MS/MS analysis; type: ADME, organism-based; settings: in vivo, time 24-48 hrs
[14] = Elimination half life in overnight fasted Beagle dog at 0.51 mg/kg, iv measured upto 24 hrs by LC-MS/MS analysis; type: ADME, organism-based, Canis lupus familiaris; settings: in vivo, read-out: beta t1/2 (converted)
[15] = Metabolic stability in human hepatocytes assessed as intrinsic clearance measured per million cells incubated upto 120 mins by LC-MS/MS analysis; type: ADME, cell-based, Hepatocyte; settings: read-out: CLH
[16] = Thermodynamic solubility of the compound in aqueous buffer at pH 7.4 measured after 24 hrs by UPLC analysis; type: physicochemical; settings: read-out: Therm_solubility
[17] = Mutagenicity in Salmonella typhimurium TA7004 in presence or absence of S9 fraction pretreated for 90 mins measured after 48 hrs in dark by AMES test; type: toxicity; settings: salmonella enterica subsp. enterica serovar typhimurium, s9, 49.5 h; time 2970 min
[18] = AUC in CD-1 mouse at 10 mg/kg, po measured upto 24 hrs by LC-MS/MS analysis; type: ADME, organism-based; settings: in vivo
mouse P-gp [19] = test: Efflux ratio of permeability from basolateral to apical side over apical to basolateral side in pig LLC-PK1 cells transfected with mouse P-gp at 1 uM measured upto 120 mins; type: ADME, cell-based, Sus scrofa
[20] = Cmax in overnight fasted Beagle dog at 2.37 mg/kg, po measured upto 24 hrs by LC-MS/MS analysis; type: ADME, organism-based, Canis lupus familiaris; settings: in vivo
mouse P-gp [21] = test: Apparent permeability across apical to basolateral side in pig LLC-PK1 cells transfected with mouse P-gp at 1 uM measured upto 120 mins; type: ADME, cell-based, Sus scrofa
[22] = Metabolic stability in rat hepatocytes assessed as intrinsic clearance measured per million cells incubated upto 120 mins by LC-MS/MS analysis; type: ADME, cell-based, Hepatocyte; settings: read-out: CLH
Cytochrome P450 1A2 = target: T1, Cytochrome P450 1A2 (Homo sapiens, UniProt P05177); test: Inhibition of human CYP1A2 preincubated for 5 mins followed by NADPH addition measured after 5 to 30 mins by LC-MS analysis; type: ADME
T1 sequence (P05177 whole entry): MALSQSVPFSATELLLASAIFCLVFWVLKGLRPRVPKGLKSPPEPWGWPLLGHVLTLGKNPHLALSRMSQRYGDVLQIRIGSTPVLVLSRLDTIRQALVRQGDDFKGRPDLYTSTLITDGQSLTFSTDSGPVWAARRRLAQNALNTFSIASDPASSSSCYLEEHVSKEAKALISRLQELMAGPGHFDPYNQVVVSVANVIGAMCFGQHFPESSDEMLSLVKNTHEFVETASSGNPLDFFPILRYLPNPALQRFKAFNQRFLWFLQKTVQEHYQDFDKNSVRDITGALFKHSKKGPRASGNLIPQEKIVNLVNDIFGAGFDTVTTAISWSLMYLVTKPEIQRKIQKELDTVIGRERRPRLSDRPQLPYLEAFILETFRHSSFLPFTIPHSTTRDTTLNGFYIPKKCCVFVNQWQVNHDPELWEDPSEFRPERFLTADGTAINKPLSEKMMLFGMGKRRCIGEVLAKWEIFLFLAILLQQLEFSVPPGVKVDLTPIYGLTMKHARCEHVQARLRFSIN

[23] = Mutagenicity in Salmonella typhimurium TA7001 in presence or absence of S9 fraction pretreated for 90 mins measured after 48 hrs in dark by AMES test; type: toxicity; settings: salmonella enterica subsp. enterica serovar typhimurium, s9, 49.5 h; time 2970 min

## COc1cc(N[C@H](C(=O)c2c[nH]c3ccc(OC(F)(F)F)cc23)c2ccc(Cl)cc2OC)cc(S(C)(=O)=O)c1 [MOSNODENVIR]
Dengue virus type 3
  EC50: 2 nM
[1]
  Vd: 4.6 L/kg
[2]
  LBF: 21%
[3]
  Chromatographic log D at pH 7.4: 3.94
[4]
  Activity: Non-Toxic
[5]
  Vd: 2.5 L/kg
Dengue virus type 2
  EC50: 0.057 nM
[6]
  bioavailability: 51%
[7]
  LBF: 5%
[8]
  Activity: Non-Toxic
[9]
  Cmax: 613 ng/mL
[10]
  bioavailability: 58%
[11]
  Cmax: 2730 ng/mL
[12]
  Vd: 3.1 L/kg
[13]
  AUC: 15400 ng·h/mL
[14]
  half-life: 7.3 h
[15]
  hepatocyte CLint: < 1.9 µL/min/1e6 cells
[16]
  solubility thermodynamic at 24 h: < 1 µg/mL
[17]
  Activity: Non-Toxic
[18]
  AUC at 24 h: 35600 ng·h/mL
Mouse P-gp [19]
  efflux ratio at 2 h, 1 µM: ~4
[20]
  Cmax: 362 ng/mL
Mouse P-gp [21]
  Papp A→B at 2 h, 1 µM: 1 ×10⁻⁶ cm/s
[22]
  hepatocyte CLint: < 1.9 µL/min/1e6 cells
Cytochrome P450 1A2
  IC50: > 30000 nM
[23]
  Activity: Non-Toxic
